From ChEMBL document CHEMBL5126576, “From tryptophan to novel mitochondria-disruptive agent, synthesis and biological evaluation of 1,2,3,6-tetrasubstituted carbazoles” (Eur J Med Chem, 2022)
Calls of active or inactive are those of the source. The rule behind the calls is not given here.

Assays:
[1] = tested on: HCT-116; test: Antiproliferative activity against human HCT-116 cells after 72 hrs by MTT assay; format: functional, cell-based; settings: HCT-116, 72 h
[2] = tested on: A549; test: Antiproliferative activity against human A549 cells after 72 hrs by MTT assay; format: functional, cell-based; settings: A549, 72 h
[3] = tested on: MCF7; test: Antiproliferative activity against human MCF7 cells after 72 hrs by MTT assay; format: functional, cell-based; settings: MCF7, 72 h
[4] = tested on: U2OS; test: Antiproliferative activity against human U2OS cells after 72 hrs by MTT assay; format: functional, cell-based
[5] = tested on: HepG2; test: Antiproliferative activity against human HepG2 cells after 72 hrs by MTT assay; format: functional, cell-based; settings: HepG2, 72 h
[6] = Antiproliferative activity against human HEK293 cells after 72 hrs by MTT assay; format: toxicity, cell-based
[7] = tested on: HCT-116; test: Induction of cell cycle arrest in human HCT-116 cells assessed as increase in G2/M phase at IC50 measured after 24 hrs by flow cytometry; format: functional, cell-based
[8] = tested on: HCT-116; test: Induction of cell cycle arrest in human HCT-116 cells assessed as moderate increase in S phase at IC50 measured after 24 hrs by flow cytometry; format: functional, cell-based
[9] = tested on: HCT-116; test: Induction of cell cycle arrest in human HCT-116 cells assessed as slight increase in G0/G1 phase at IC50 measured after 24 hrs by flow cytometry; format: functional, cell-based
[10] = tested on: A549; test: Induction of cell cycle arrest in human A549 cells assessed as increase in G2/M phase at IC50 measured after 24 hrs by flow cytometry; format: functional, cell-based
[11] = tested on: A549; test: Induction of cell cycle arrest in human A549 cells assessed as moderate increase in S phase at IC50 measured after 24 hrs by flow cytometry; format: functional, cell-based
[12] = tested on: A549; test: Induction of cell cycle arrest in human A549 cells assessed as slight increase in G0/G1 phase at IC50 measured after 24 hrs by flow cytometry; format: functional, cell-based
[13] = tested on: U2OS; test: Induction of cell cycle arrest in human U2OS cells assessed as increase in G2/M phase at IC50 measured after 24 hrs by flow cytometry; format: functional, cell-based
[14] = tested on: U2OS; test: Induction of cell cycle arrest in human U2OS cells assessed as moderate increase in S phase at IC50 measured after 24 hrs by flow cytometry; format: functional, cell-based
[15] = tested on: U2OS; test: Induction of cell cycle arrest in human U2OS cells assessed as slight increase in G0/G1 phase at IC50 measured after 24 hrs by flow cytometry; format: functional, cell-based
[16] = tested on: HCT-116; test: Induction of cell cycle arrest in human HCT-116 cells assessed as increase in number of cells at S phase at IC50 measured after 72 hrs by flow cytometry; format: functional, cell-based
[17] = tested on: A549; test: Induction of cell cycle arrest in human A549 cells assessed as increase in number of cells at G2/M phase at IC50 measured after 24 to 48 hrs by flow cytometry; format: functional, cell-based; settings: time 24-48 hrs
[18] = tested on: A549; test: Induction of cell cycle arrest in human A549 cells assessed as increase in number of cells at S phase at IC50 measured after 72 hrs by flow cytometry; format: functional, cell-based
[19] = tested on: U2OS; test: Inhibition of colony formation in human U2OS cells at 0.5 to 10 uM measured after 24 hrs crystal violet staining based assay; format: functional, cell-based; settings: dose 0.5-10 µM
[20] = Drug uptake in human HCT-116 cells assessed as accumulation in lipid droplets at IC50 measured after 2 hr by immunofluorescence analysis; format: ADME, cell-based; settings: hct-116, 2 h
[21] = tested on: HCT-116; test: Inhibition of colony formation in human HCT-116 cells at 0.5 to 10 uM measured after 24 hrs crystal violet staining based assay; format: functional, cell-based; settings: dose 0.5-10 µM
[22] = tested on: HCT-116; test: Inhibition of cell migration in human HCT-116 cells at 5 to 10 uM measured after 24 hrs by wound healing assay; format: functional, cell-based; settings: dose 5-10 µM
[23] = tested on: HCT-116; test: Inhibition of cell migration in human HCT-116 cells at 10 uM measured after 60 hrs by wound healing assay relative to control; format: functional
[24] = tested on: U2OS; test: Inhibition of cell migration in human U2OS cells at 5 to 10 uM measured after 24 to 48 hrs by wound healing assay; format: functional, cell-based; settings: dose 5-10 µM, time 24-48 hrs
[25] = tested on: HCT-116; test: Induction of apoptosis in human HCT-116 cells assessed as early apoptotic cells at IC50 measured after 6 hrs by Annexin-V-FITC/propidium iodide staining based flow cytometry; format: functional
[26] = tested on: HCT-116; test: Induction of apoptosis in human HCT-116 cells assessed as early and late apoptotic cells at IC50 measured after 24 hrs by Annexin-V-FITC/propidium iodide staining based flow cytometry; format: functional, cell-based
[27] = tested on: HCT-116; test: Induction of apoptosis in human HCT-116 cells assessed as necrotic cells at IC50 measured after 48 hrs by Annexin-V-FITC/propidium iodide staining based flow cytometry relative to control; format: functional
[28] = tested on: HCT-116; test: Induction of apoptosis in human HCT-116 cells assessed as increase in caspase 3/7 activity at IC50 measured after 6 to 48 hrs by […] based flow cytometry; format: functional, cell-based; settings: time 6-48 hrs
[29] = tested on: HCT-116; test: Induction of reactive oxygen species generation in human HCT116 cells at 15 uM after 24 hrs by DCFH-DA staining based assay relative to control; format: functional
[30] = tested on: U2OS; test: Induction of reactive oxygen species generation in human U2OS cells by DCFH-DA staining based assay; format: functional, cell-based; settings: time 1-24 hrs
[31] = tested on: HCT-116; test: Induction of mitochondrial membrane potential loss in human HCT116 cells assessed as green fluorescence intensity by JC1 staining-based flow cytometry analysis; format: functional, cell-based
[32] = tested on: U2OS; test: Induction of mitochondrial membrane potential loss in human U2OS cells assessed as green fluorescence intensity by JC1 staining-based flow cytometry analysis; format: functional, cell-based
[33] = tested on: HCT-116; test: Induction of mitochondrial morphological changes in human HCT-116 cells assessed as short circular-shaped mitochondria measured after 6 hrs by confocal microscopic analysis; format: functional, cell-based
[34] = tested on: U2OS; test: Induction of mitochondrial morphological changes in human U2OS cells assessed as short circular-shaped mitochondria measured after 6 hrs by confocal microscopic analysis; format: functional, cell-based
[35] = tested on: HCT-116; test: Induction of mitochondrial morphological changes in human HCT-116 cells assessed as reduction in mitochondrial length measured after 6 hrs by confocal microscopic analysis relative to control; format: functional; design: scale not given: the % may be the effect or the level left
[36] = tested on: HCT-116; test: Induction of DNA damage in human HCT-116 cells assessed as increase in H2AX phosphorylation measured after 24 to 72 hrs by immunofluorescence analysis; format: functional, cell-based; settings: time 24-72 hrs
[37] = tested on: U2OS; test: Induction of DNA damage in human U2OS cells assessed as increase in H2AX phosphorylation measured after 48 hrs by immunofluorescence analysis relative to control; format: functional
[38] = tested on: U2OS; test: Induction of DNA damage in human U2OS cells assessed as increase in H2AX phosphorylation measured after 72 hrs by immunofluorescence analysis relative to control; format: functional
[39] = tested on: HCT-116; test: Induction of cell senescence in human HCT-116 cells assessed by increase SA-beta-Gal activity measured after 24 to 48 hrs by microscopic analysis; format: functional, cell-based; settings: time 24-48 hrs

CCOC(=O)c1c(OC(=O)c2ccc(C)o2)c(NC(=O)c2ccc(C)o2)cc2c1[nH]c1ccc(NC(=O)c3ccc(C)o3)cc12
IC50 [1]: > 50 µM | IC50 [2]: > 50 µM | IC50 [3]: > 50 µM | IC50 [4]: > 50 µM | IC50 [5]: > 50 µM | IC50 at 72 h [6]: > 50 µM

CCOC(=O)CC(=O)C(Cc1c[nH]c2ccccc12)NC(=O)OC(C)(C)C (configuration not stated)
IC50 [1]: > 50 µM | IC50 [2]: > 50 µM | IC50 [3]: > 50 µM | IC50 [4]: > 50 µM | IC50 [5]: > 50 µM | IC50 at 72 h [6]: > 50 µM

CCOC(=O)Nc1cc2c([nH]c3ccccc32)c(C(=O)OCC)c1O
IC50 [1]: > 50 µM | IC50 [2]: 16.9 µM | IC50 [3]: > 50 µM | IC50 [4]: > 50 µM | IC50 [5]: > 50 µM | IC50 at 72 h [6]: > 50 µM

CCOC(=O)c1c(O)c(NC(=O)OC(C)(C)C)cc2c1[nH]c1ccc(OC(C)=O)cc12
IC50 [1]: 46.4 µM | IC50 [2]: > 50 µM | IC50 [3]: > 50 µM | IC50 [4]: 37.5 µM | IC50 [5]: > 50 µM | IC50 at 72 h [6]: > 50 µM

CC(C)(C)OC(=O)Nc1cc2c([nH]c3ccccc32)c(C(=O)O)c1O
IC50 [1]: 3.75 µM | IC50 [2]: 11.5 µM | IC50 [3]: > 50 µM | IC50 [4]: 2.34 µM | IC50 [5]: > 50 µM | IC50 at 72 h [6]: > 50 µM | Activity [7]: Active | Activity [8]: Active | Activity [9]: Active | Activity [10]: Active | Activity [11]: Active | Activity [12]: Active | Activity [13]: Active | Activity [14]: Active | Activity [15]: Active | Activity [16]: Active | Activity [17]: Active | Activity [18]: Active | inhibition [19]: Active | Drug uptake [20]: Active | inhibition [21]: Active | inhibition [22]: Active | inhibition at 10 µM [23]: 64.4% | inhibition [24]: Active | Activity [25]: 11.23% | Activity [26]: Active | Activity [27]: 2.38% | Activity [28]: Active | Activity [29]: 64.2% | Activity [30]: Active | Activity [31]: Active | Activity [32]: Active | Activity [33]: Active | Activity [34]: Active | Activity [35]: 36.71% | Activity [36]: Active | Activity [37]: 51% | Activity [38]: 68.2% | Activity [39]: Active

CCOC(=O)c1c(O)c(NC(=O)OC(C)(C)C)cc2c1[nH]c1ccccc12
IC50 [1]: 10.7 µM | IC50 [2]: > 50 µM | IC50 [3]: > 50 µM | IC50 [4]: 15.7 µM | IC50 [5]: > 50 µM | IC50 at 72 h [6]: > 50 µM | inhibition [19]: Active | Drug uptake [20]: Active | inhibition [21]: Active | inhibition [22]: Active | inhibition at 10 µM [23]: 57% | inhibition [24]: Active | Activity [26]: Active | Activity [27]: 1.16% | Activity [28]: Active | Activity [29]: 19.6% | Activity [30]: Active | Activity [31]: Active | Activity [32]: Active | Activity [33]: Active | Activity [34]: Active | Activity [35]: 50.34% | Activity [36]: Active | Activity [39]: Active

CCOC(=O)c1c(O)c(NC(=O)OC(C)(C)C)cc2c1[nH]c1ccc(NC(=O)OC(C)(C)C)cc12
IC50 [1]: > 50 µM | IC50 [2]: > 50 µM | IC50 [3]: > 50 µM | IC50 [4]: > 50 µM | IC50 [5]: > 50 µM | IC50 at 72 h [6]: > 50 µM

O=c1[nH]cc(F)c(=O)[nH]1 [FLUOROURACIL]
IC50 [1]: 5.78 µM | IC50 [2]: 8.12 µM | IC50 [3]: 8.41 µM | IC50 [4]: 13 µM | IC50 [5]: 19 µM | IC50 at 72 h [6]: 41 µM

CCOC(=O)c1c(O)c(NC(=O)c2ccc(CC)o2)cc2c1[nH]c1ccccc12
IC50 [1]: > 50 µM | IC50 [2]: > 50 µM | IC50 [3]: > 50 µM | IC50 [4]: > 50 µM | IC50 [5]: > 50 µM | IC50 at 72 h [6]: > 50 µM

CCOC(=O)c1c(O)c(NC(C)=O)cc2c1[nH]c1ccccc12
IC50 [1]: > 50 µM | IC50 [2]: > 50 µM | IC50 [3]: > 50 µM | IC50 [4]: > 50 µM | IC50 [5]: > 50 µM | IC50 at 72 h [6]: > 50 µM

CCOC(=O)c1c(O)c(NC(=O)c2ccc(C)o2)cc2c1[nH]c1ccccc12
IC50 [1]: > 50 µM | IC50 [2]: > 50 µM | IC50 [3]: > 50 µM | IC50 [4]: > 50 µM | IC50 [5]: > 50 µM | IC50 at 72 h [6]: > 50 µM
